According to patent US9790221B2, “Heteroaryl compounds as IRAK inhibitors and uses thereof” (Merck Patent GmbH, priority 2014, dated 2017):

Experiments:
[1] = target: IRAK1 (His-TEV-IRAK1 (194-712)) (Homo sapiens (Human), UniProt P51617); assay: IRAK1 enzymatic assay; type: biochemical
Method in brief: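 Compounds ([…] down to 1 nM) were incubated 3 h at 30° C with His-TEV-IRAK1 (194-712, 15 ng/well) and 1 μM [33P]-labelled ATP in 50 mM Hepes pH 7.0, 10 mM MgCl2. After EDTA stop and washing, the retained autophosphorylation signal was measured by scintillation in streptavidin-coated plates.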

[2] = tested on: TLR7 induced IL-6 secretion in human mononuclear cells (PBMC's); assay: TLR7 induced IL-6 in human PBMC's; type: cell-based; conditions: Homo sapiens, PBMC, read-out: TLR7 induced IL-6 secretion in hPBMC's (IC50)
Method in brief: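 Fresh or frozen healthy-donor PBMCs preincubated 30 min at 37° C. with compound (25 uM to 0.4 nM; vehicle 0.25% DMSO) in RPMI/10% HI-FBS. Stimulated with TLR7 ligand (2 uM) for 16-18 h at 37° C.; supernatant IL-6 measured by AlphaLISA.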

IRAK4 = IRAK4 (Homo sapiens (Human), UniProt Q9NWZ3); assay: IRAK4 enzymatic assay; type: biochemical
Sequence of IRAK4 (Q9NWZ3 whole entry): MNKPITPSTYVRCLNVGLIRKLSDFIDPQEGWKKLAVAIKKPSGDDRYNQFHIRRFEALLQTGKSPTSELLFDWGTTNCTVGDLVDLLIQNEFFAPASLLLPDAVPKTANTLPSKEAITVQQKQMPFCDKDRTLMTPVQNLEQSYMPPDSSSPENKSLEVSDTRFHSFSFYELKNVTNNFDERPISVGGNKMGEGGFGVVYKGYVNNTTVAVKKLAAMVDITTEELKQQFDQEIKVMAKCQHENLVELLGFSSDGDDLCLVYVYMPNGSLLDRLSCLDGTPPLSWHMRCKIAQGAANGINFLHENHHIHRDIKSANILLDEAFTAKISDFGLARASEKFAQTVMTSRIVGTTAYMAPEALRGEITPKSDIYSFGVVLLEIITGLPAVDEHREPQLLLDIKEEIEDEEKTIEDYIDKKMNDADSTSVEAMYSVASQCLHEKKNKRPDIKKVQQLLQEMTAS
Method in brief: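 Radiometric streptavidin FlashPlate read: 3 h, 30° C incubation of His-TEV-IRAK4 (20 ng/well), STK1-biotin substrate (300 nM) and ATP (2 μM, [^33P]-labelled) in Hepes pH 7.0, MgCl2 10 mM, MnCl2 5 mM. Compounds from 20 µM down to 1 nM, 2% DMSO controls; reaction quenched with EDTA.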

Sequence of IRAK1 (His-TEV-IRAK1 (194-712)) (P51617 194-712): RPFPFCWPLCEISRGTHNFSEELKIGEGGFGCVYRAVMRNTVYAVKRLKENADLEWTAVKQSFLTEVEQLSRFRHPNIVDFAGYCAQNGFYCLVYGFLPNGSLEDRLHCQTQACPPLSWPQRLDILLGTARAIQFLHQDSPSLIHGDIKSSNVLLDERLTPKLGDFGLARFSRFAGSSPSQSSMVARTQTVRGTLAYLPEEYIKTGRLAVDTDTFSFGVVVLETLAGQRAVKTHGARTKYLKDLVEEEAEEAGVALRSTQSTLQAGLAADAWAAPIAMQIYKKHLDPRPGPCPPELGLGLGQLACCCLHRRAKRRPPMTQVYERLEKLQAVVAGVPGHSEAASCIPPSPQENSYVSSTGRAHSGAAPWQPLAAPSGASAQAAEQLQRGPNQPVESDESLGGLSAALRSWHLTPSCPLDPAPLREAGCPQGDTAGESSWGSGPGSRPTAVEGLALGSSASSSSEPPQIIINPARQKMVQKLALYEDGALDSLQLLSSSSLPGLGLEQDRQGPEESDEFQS

IC50 [1] [µM]	IC50 (IRAK4) [µM]	Structure (SMILES)	IC50 [2] [µM]
< 0.1	< 0.1	Cn1cc(-c2cccc(-c3ncc(-c4cnn(C)c4)c(NC45CCC(NS(C)(=O)=O)(CC4)CC5)n3)c2)cn1 [Example 187]	0.1 to 1
< 0.1	< 0.1	Cn1cc(-c2cccc(-c3ncc(-c4cnn(C)c4)c(NC4CC(CN)C4)n3)c2)cn1 (stereo not drawn) [Example 188]	1 to 5
< 0.1	< 0.1	Cn1cc(-c2cccc(-c3ncc(-c4cnn(C)c4)c(N[C@H]4CC[C@H](NS(C)(=O)=O)C4)n3)c2)cn1 [Example 190]	1 to 5
0.1 to 1	< 0.1	Cn1cc(-c2cccc(-c3ncc(-c4cnn(C)c4)c(NC4CCC(CN)CC4)n3)c2)cn1 (stereo not drawn) [Example 194]	0.1 to 1
< 0.1	< 0.1	Cn1cc(-c2cccc(-c3ncc(-c4cnn(C)c4)c(N[C@H]4C[C@@H](CNS(C)(=O)=O)C4)n3)c2)cn1 [Example 195, N-(3-{5-(1-Methyl-1H-pyrazol-4-yl)-2-[3-(1-methyl-1H-pyrazol-4-yl)-phenyl]-pyrimidin-4-ylamino}-cyclobutylmethyl)-methanesulfonamide]	1 to 5
0.1 to 1	0.1 to 1	Cn1cc(-c2cccc(-c3ncc(-c4cnn(C)c4)c(N[C@H]4C[C@H](CNS(C)(=O)=O)C4)n3)c2)cn1 [Example 196, N-(3-{5-(1-Methyl-1H-pyrazol-4-yl)-2-[3-(1-methyl-1H-pyrazol-4-yl)-phenyl]-pyrimidin-4-ylamino}-cyclobutylmethyl)-methanesulfonamide]	1 to 5
0.1 to 1	< 0.1	Cn1cc(-c2cccc(-c3ncc(-c4cnn(C)c4)c(N[C@H]4CCC[C@H](O)[C@@H]4O)n3)c2)cn1 [Example 208, (1S,2R,3S)-3-{5-(1-Methyl-1H-pyrazol-4-yl)-2-[3-(1-methyl-1H-pyrazol-4-yl)-phenyl]-pyrimidin-4-ylamino}-cyclohexane-1,2-diol]	0.1 to 1
< 0.1	< 0.1	Cc1nnc(-c2cnc(-c3cccc(-c4cnn(C)c4)c3)nc2NC2CCC(NS(=O)(=O)C3CC3)CC2)s1 (stereo not drawn) [Example 209]	0.1 to 1
0.1 to 1	< 0.1	CC(C)Nc1nc(-c2cccc(-c3cnn(C)c3)c2)ncc1-c1nnc(C2CCNCC2)s1 [Example 210]	0.1 to 1
0.1 to 1	0.1 to 1	CC(=O)NC[C@H]1C[C@@H](Nc2nc(-c3cccc(-c4cnn(C)c4)c3)ncc2-c2cnn(C)c2)C1 [Example 211, N-(3-{5-(1-Methyl-1H-pyrazol-4-yl)-2-[3-(1-methyl-1H-pyrazol-4-yl)-phenyl]-pyrimidin-4-ylamino}-cyclobutylmethyl)-acetamide]	1 to 5
< 0.1	< 0.1	Cn1cc(-c2cccc(-c3ncc(-c4cnn(C)c4)c(NCCCS(C)(=O)=O)n3)c2)cn1 [Example 213]	0.1 to 1
> 5	< 0.1	Cc1nnc(-c2cnc(-c3cccc(-c4cnn(C)c4)c3)nc2NC2CCC(F)(F)CC2)s1 [Example 214]	1 to 5
0.1 to 1	< 0.1	Cc1ccc(-c2cnc(-c3cccc(-c4cnn(C)c4)c3)nc2NC2CCN(S(C)(=O)=O)CC2)cn1 [Example 215]	0.1 to 1
0.1 to 1	< 0.1	Cc1nnc(-c2cnc(-c3cccc(-c4cnn(C)c4)c3)nc2NCC(O)C(F)(F)F)s1 (stereo not drawn) [Example 216]	0.1 to 1
0.1 to 1	< 0.1	Cn1cc(-c2cccc(-c3ncc(-c4cnn(C)c4)c(NCC4CCCOC4)n3)c2)cn1 (stereo not drawn) [Example 217]	1 to 5
0.1 to 1	< 0.1	Cn1cc(-c2cccc(-c3ncc(-c4cnn(C)c4)c(N4CCC(O)CC4)n3)c2)cn1 [Example 219]	1 to 5
0.1 to 1	< 0.1	Cn1cc(-c2cccc(-c3ncc(-c4cnn(C)c4)c(N[C@H]4CC[C@@H](O)CC4)n3)c2)cn1 [Example 221]	0.1 to 1
0.1 to 1	< 0.1	Cn1cc(-c2cccc(-c3ncc(-c4cnn(C)c4)c(NC[C@H]4CCCC[C@H]4O)n3)c2)cn1 [Example 225]	0.1 to 1

The next lines start with the compound.

Structure (SMILES)	IC50 [1] [µM]	IC50 (IRAK4) [µM]	IC50 [2] [µM]
Cn1cc(-c2cccc(-c3ncc(-c4cnn(C)c4)c(N[C@H]4CC[C@H](N)CC4)n3)c2)cn1 [Example 143]	0.1 to 1	< 0.1	0.1 to 1
Cc1nnc(-c2cnc(-c3cccc(-c4cnn(C)c4)c3)nc2NCCN2CCOCC2)s1 [Example 146]	> 5	< 0.1	1 to 5
Cn1cc(-c2cccc(-c3ncc(-c4cnn(C)c4)c(N[C@H]4CC[C@H](O)CC4)n3)c2)cn1 [Example 149]	0.1 to 1	< 0.1	0.1 to 1
Cn1cc(-c2cccc(-c3ncc(-c4ccn(C)n4)c(NC4C5CCCC4CC(N)C5)n3)c2)cn1 (stereo not drawn) [Example 152]	0.1 to 1	< 0.1	0.1 to 1
Cn1cc(-c2cccc(-c3ncc(-c4cnn(C)c4)c(NC4C5CCCC4CC(N)C5)n3)c2)cn1 (stereo not drawn) [Example 153]	0.1 to 1	< 0.1	0.1 to 1
Cn1cc(-c2cccc(-c3ncc(-c4cnn(C)c4)c(NC[C@H]4CC[C@H](O)CC4)n3)c2)cn1 [Example 156]	0.1 to 1	< 0.1	0.1 to 1
Cn1cc(-c2cccc(-c3ncc(-c4cnn(C)c4)c(NC4CC5(CCN(S(C)(=O)=O)C5)C4)n3)c2)cn1 (stereo not drawn) [Example 169]	0.1 to 1	< 0.1	> 5
Cn1cc(-c2cccc(-c3ncc(-c4cnn(C)c4)c(N[C@@H]4CCN(S(C)(=O)=O)C4)n3)c2)cn1 [Example 171]	< 0.1	< 0.1	1 to 5
Cn1cc(-c2cccc(-c3ncc(-c4cnn(C)c4)c(NCCCNS(C)(=O)=O)n3)c2)cn1 [Example 179]	0.1 to 1	< 0.1	1 to 5
Cn1cc(-c2cccc(-c3ncc(-c4cnn(C)c4)c(NCC4CC(O)C4)n3)c2)cn1 (stereo not drawn) [Example 181]	0.1 to 1	< 0.1	1 to 5
Cn1cc(-c2cccc(-c3ncc(-c4cnn(C)c4)c(N[C@H]4CC[C@H](NS(C)(=O)=O)CC4)n3)c2)cn1 [Example 182]	< 0.1	< 0.1	0.1 to 1
Cn1cc(-c2cccc(-c3ncc(-c4cnn(C)c4)c(N[C@H]4C[C@@H](NS(C)(=O)=O)C4)n3)c2)cn1 [Example 183]	0.1 to 1	< 0.1	1 to 5
Cc1nnc(-c2cnc(-c3cccc(-c4cnn(C)c4)c3)nc2NCCNS(C)(=O)=O)s1 [Example 184]	0.1 to 1	< 0.1	0.1 to 1
Cn1cc(-c2cccc(-c3ncc(-c4cnn(C)c4)c(N[C@H]4CC[C@H](N)C4)n3)c2)cn1 [Example 185]	1 to 5	< 0.1	1 to 5
Cn1cc(-c2cccc(-c3ncc(-c4cnn(C)c4)c(NC45CCC(N)(CC4)CC5)n3)c2)cn1 [Example 186]	< 0.1	< 0.1	0.1 to 1
Cn1cc(-c2cccc(-c3ncc(-c4cnn(C)c4)c(NC4CC5CCC4N5S(C)(=O)=O)n3)c2)cn1 (stereo not drawn) [Example 199]	0.1 to 1	< 0.1	0.1 to 1
